PubChem BioAssay (NCI)
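These data come from cells grown in 96-well plates and exposed to compound for 48 hours at five concentrations. GI50: concentration for 50% inhibition of growth. The concentration for full growth arrest is given as TGI.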

Assays:
Assay in all cases: NCI-60 cell line screen, 48 h
[1] = tested on: HL-60(TB) leukemia
[2] = tested on: TK-10 renal
[3] = tested on: SNB-75 CNS
[4] = tested on: EKVX NSCLC
[5] = tested on: CAKI-1 renal
[6] = tested on: DU-145 prostate
[7] = tested on: NCI-H226 lung
[8] = tested on: SK-OV-3 ovarian
[9] = tested on: UACC-62 melanoma
[10] = tested on: MALME-3M melanoma

Compound	TGI [1]	TGI [2]	TGI [3]	TGI [4]	TGI [5]	TGI [6]	TGI [7]	TGI [8]	TGI [9]	TGI [10]	GI50 [1]	GI50 [3]	GI50 [4]	GI50 [5]	GI50 [10]	GI50 [7]	GI50 [8]	GI50 [9]
Cc1ccc(/C=C2/NC(=S)SC2=O)cc1	> 100 µM	53.9 µM	80.8 µM	> 100 µM	51.1 µM	> 100 µM	> 100 µM	> 100 µM										
CCOC(=O)Cc1csc(N=Nc2c(O)[nH]c3ccccc23)n1	50.7 µM	> 100 µM	96.6 µM	> 100 µM	> 100 µM	> 100 µM	> 100 µM	> 100 µM	> 100 µM									
COC(=O)/C=C1\C(=O)C=C2[C@@H]3C[C@H]4C[C@H](CC[C@@]4(C)N21)C3(C)NC(C)=O (stereo partly drawn)	> 100 µM	33.9 µM	27.4 µM	30.6 µM	26.3 µM	32.8 µM	55.1 µM	55.7 µM	35 µM									
COC1(OC)C=CC(=O)C=C1	15.6 µM	7.67 µM	26.9 µM	21.9 µM	11.6 µM	12.6 µM	10.4 µM	26.3 µM	4.08 µM									
COC(=O)[C@](C)(Cc1ccccc1)NC(=O)[C@@H](C)N1[C@@H](c2ccccc2)COC1(C)C	> 100 µM	> 100 µM	75.8 µM	> 100 µM	> 100 µM		> 100 µM	> 100 µM	> 100 µM	> 100 µM								
Cc1nc2cccc(F)c2c(=O)n1-c1nnc(C(F)(F)F)s1	> 10 µM	> 10 µM	> 10 µM	> 10 µM	> 10 µM	> 10 µM	> 10 µM	> 10 µM	> 10 µM									
O=[N+]([O-])c1ccc2nc(/C=C(\O)c3ccc(Cl)cc3)c(/C=C(\O)c3ccc(Cl)cc3)nc2c1		> 100 µM	> 100 µM	> 100 µM	> 100 µM	> 100 µM	> 100 µM		> 100 µM	> 100 µM								
C=CCc1ccccc1C1CC2(C(=O)OC)OC1C(C(=O)OC)=C2C(=O)OC (stereo not drawn)	> 10 µM	> 10 µM		> 10 µM	> 10 µM	> 10 µM	> 10 µM	> 10 µM	> 10 µM	> 10 µM								
Nn1c(Sc2nc3ccccc3c(=O)n2N)nc2ccccc2c1=O		42.2 µM	34.8 µM	38.9 µM	20.3 µM	56.8 µM	5.5 µM	54.6 µM	25.6 µM	12.8 µM								
COc1cc2oc(=O)cc(C)c2cc1OC		> 100 µM	> 100 µM	> 100 µM		> 100 µM	> 100 µM	> 100 µM	> 100 µM	> 100 µM								
NC(=S)N/N=C1\CCCC1C(O)(C(F)(F)Cl)C(F)(F)Cl (stereo not drawn)		> 10 µM	> 10 µM	> 10 µM	> 10 µM	> 10 µM	> 10 µM	> 10 µM	> 10 µM	> 10 µM								
CS(=O)(=O)[O-].CS(=O)(=O)[O-].NC1CCCCC1N.[Pt+4] (stereo not drawn)	> 93.5 µM		> 100 µM	> 100 µM	> 100 µM		> 100 µM	> 100 µM	> 100 µM	> 100 µM	33.5 µM	> 68 µM	> 100 µM	41.8 µM	> 100 µM	39.2 µM	> 100 µM	> 100 µM
Cc1nc2c(n1-c1ccccc1)C(=O)c1ccccc1C2=O	45.1 µM	> 100 µM	> 100 µM	> 100 µM	> 100 µM		> 100 µM	> 100 µM	> 100 µM	34.2 µM								
COc1cc2c(cc1OC)C(=O)/C(=C/c1ccc(O)cc1)CC2	> 10 µM	> 10 µM		> 10 µM	> 10 µM	> 10 µM	> 10 µM	> 10 µM	> 10 µM	> 10 µM								
O=c1oc2cccnc2n1CCCCN1CCN(c2ccccc2)CC1	> 100 µM	> 100 µM		> 100 µM	> 100 µM	> 100 µM		> 100 µM		> 100 µM								
CCn1c(=O)c2c3ccc(OC(C)=O)cc3[nH]c2c2ccc(OC(C)=O)cc21		> 100 µM	89.5 µM		> 100 µM	49.1 µM	> 100 µM	> 100 µM	> 100 µM	> 100 µM								
CC(=Nc1cc(Cl)cc(Cl)c1)c1ccncc1		> 100 µM	> 100 µM	> 100 µM	> 100 µM	> 100 µM	> 100 µM	> 100 µM	> 100 µM	> 100 µM								
O=C(O)COc1cc(-c2ccccc2)nc2ccccc12	> 100 µM	> 100 µM	> 100 µM	> 100 µM	> 100 µM	> 100 µM	> 100 µM	> 100 µM		> 100 µM								
CCOC(=O)CCC(NC(=O)OCc1ccccc1)C(=O)NC(CCC(=O)OCC)C(=O)NC(CCC(=O)OCC)C(=O)NNC(=O)OC(C)(C)C (stereo not drawn)	> 100 µM	> 100 µM	> 100 µM	> 100 µM			> 100 µM		> 100 µM	> 100 µM								
O=c1c2cc(Br)ccc2ncn1COCc1ccccc1		> 100 µM		> 100 µM		> 100 µM	> 1 µM	> 100 µM	> 100 µM									
Nc1ccc2c(c1)NC(=O)[C@@H]1CCCN1C2=O	> 100 µM	> 100 µM	> 100 µM	> 100 µM	> 100 µM	> 100 µM	> 100 µM	> 100 µM	> 100 µM									
C=C(CCOC)CCC1CCCCC(=C)[C@H]1O (stereo partly drawn)	> 100 µM	> 100 µM	> 100 µM	> 100 µM	> 100 µM	> 100 µM	> 100 µM	> 100 µM	> 100 µM									
C[C@]12CCC(=O)C=C1CC[C@@H]1[C@@H]2[C@@H](O)C[C@@]2(C)[C@H]1CC[C@]2(O)C(=O)COC(=O)CCC1CCCC1	> 100 µM	> 100 µM	> 100 µM	> 100 µM	> 100 µM		> 100 µM	> 100 µM	> 100 µM	> 100 µM								
